Experimental data published in BindingDB's records for doi:10.1021/jm00171a003 (Merck, 1990).
Numbered stars: 1 amine (or outer) side, 2 acyl side, 3 side chain; on linkers, the order of the positions; unused ones are H or OH. Square brackets hold non-standard residues; d marks the D form. Peptide text beside a SMILES is read from it. X6 = CN(C)C[C@H]1C=NN([*:1])[C@H](C(=O)[*:2])C1; X5 = O=C1CC[C@@H](C(=O)[*:2])N([*:1])N1; dPiz(1,6-dehydro) = O=C(O)[C@H]1CCC=NN1; X2 = CN1CCC[C@@H](C(=O)[*:2])N1[*:1]; X1 = CN1CCC[C@H](C(=O)[*:2])N1[*:1]; X7 = O=C([C@@H]1C=CC=NN1[*:1])[*:2]; X3 = O=C([C@H]1CCCNN1[*:1])[*:2]; dNMeF = CN[C@H](Cc1ccccc1)C(=O)O

biological target: Vasopressin V1a receptor (Rattus norvegicus) (UniProt P30560); test: Binding affinity against Vasopressin receptor in rat liver
Sequence (P30560 whole entry, looked up): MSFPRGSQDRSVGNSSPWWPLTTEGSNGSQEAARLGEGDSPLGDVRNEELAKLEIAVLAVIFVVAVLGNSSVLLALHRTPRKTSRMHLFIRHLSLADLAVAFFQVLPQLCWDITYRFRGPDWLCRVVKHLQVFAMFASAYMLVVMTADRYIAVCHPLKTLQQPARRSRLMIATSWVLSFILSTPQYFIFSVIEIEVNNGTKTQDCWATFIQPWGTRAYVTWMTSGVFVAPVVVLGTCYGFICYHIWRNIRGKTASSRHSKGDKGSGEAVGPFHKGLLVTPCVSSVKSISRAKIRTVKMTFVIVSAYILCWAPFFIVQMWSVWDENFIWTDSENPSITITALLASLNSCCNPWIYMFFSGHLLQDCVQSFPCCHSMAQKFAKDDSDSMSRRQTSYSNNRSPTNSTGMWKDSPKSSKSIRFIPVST

Ki | Structure (SMILES)
2200 nM | CC[C@H](C)[C@H]1C(=O)N2NCCC[C@@H]2C(=O)N2NCCC[C@H]2C(=O)N(C)[C@H](Cc2ccccc2)C(=O)N2CCC[C@H]2C(=O)N[C@H](Cc2ccccc2)C(=O)N1O
> 30000 nM | CC[C@H](C)[C@@H]1NC[C@@H](Cc2ccccc2)NC(=O)[C@@H]2CCCN2C(=O)[C@@H](Cc2ccccc2)N(C)C(=O)[C@@H]2CCC=NN2C(=O)[C@H]2CCC=NN2C1=O
7400 nM | CC[C@H](C)[C@@H]1NC(=O)[C@@H](Cc2ccccc2)NC(=O)[C@@H]2CCCN2C(=O)[C@@H](Cc2ccccc2)N(C)C(=O)[C@@H]2CCCN(C)N2C(=O)[C@H]2CCCN(C)N2C1=O (cyclo(I[X1][X2][dNMeF]P[dF]))
550 nM | CC[C@H](C)[C@@H]1NC(=O)[C@@H](Cc2ccccc2)NC(=O)[C@@H]2CCCN2C(=O)[C@@H](Cc2ccccc2)N(C)C(=O)[C@@H]2C[C@@H](CN(C)C)C=NN2C(=O)[C@H]2CCC=NN2C1=O (cyclo(I[dPiz(1,6-dehydro)][X6][dNMeF]P[dF]))
390 nM | CC[C@H](C)[C@@H]1NC(=O)[C@@H](Cc2ccccc2)NC(=O)[C@@H]2CCCN2C(=O)[C@@H](Cc2ccccc2)N(C)C(=O)[C@@H]2C=CC=NN2C(=O)[C@H]2CCC=NN2C1=O (cyclo(I[dPiz(1,6-dehydro)][X7][dNMeF]P[dF]))

biological target: Vasopressin V1a receptor (Rattus norvegicus) (UniProt P30560); test: as above; remark: another data set of the same source

Ki | Structure (SMILES)
140 nM | CC[C@@H](C)[C@@H]1NC(=S)[C@@H](Cc2ccccc2)NC(=O)[C@@H]2CCCN2C(=O)[C@@H](Cc2ccccc2)N(C)C(=O)[C@@H]2CCC=NN2C(=O)[C@H]2CCC=NN2C1=O
3900 nM | CC[C@H](C)[C@@H]1NC(=O)[C@@H](Cc2ccccc2)NC(=O)[C@@H]2CCCN2C(=O)[C@@H](Cc2ccccc2)N(C)C(=O)[C@@H]2CCC(=O)NN2C(=O)[C@H]2CCCNN2C1=O (cyclo(I[X3][X5][dNMeF]P[dF]))
1600 nM | CC[C@H](C)[C@@H]1NC(=O)[C@@H](Cc2ccccc2)NC(=O)[C@@H]2CCCN2C(=O)[C@@H](Cc2ccccc2)N(C)C(=O)[C@@H]2CCC(=O)NN2C(=O)[C@H]2CCC=NN2C1=O (cyclo(I[dPiz(1,6-dehydro)][X5][dNMeF]P[dF]))
